Data published in patent publication US8173638B2 (Boehringer Ingelheim International GmbH, priority 2006, dated 2012).

target: T1, human CB2R (Homo sapiens, UniProt P34972); test: CB2R mediated modulation of cAMP synthesis; format: cell-based; details: not given
T1 construct: host or cells: CHO cells
How it was run: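 Forskolin (10 uM)-driven cAMP in human CB2R-expressing CHO cells, read with DiscoverX-XS kit after 30 min compound exposure at 37 °C, 1 mM IBMX, 0.25% BSA. 100% defined as forskolin cAMP relative to 1 uM CP55940 inhibition. Agonist EC50 via four-parameter logistic model.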

T1 sequence (P34972 whole entry): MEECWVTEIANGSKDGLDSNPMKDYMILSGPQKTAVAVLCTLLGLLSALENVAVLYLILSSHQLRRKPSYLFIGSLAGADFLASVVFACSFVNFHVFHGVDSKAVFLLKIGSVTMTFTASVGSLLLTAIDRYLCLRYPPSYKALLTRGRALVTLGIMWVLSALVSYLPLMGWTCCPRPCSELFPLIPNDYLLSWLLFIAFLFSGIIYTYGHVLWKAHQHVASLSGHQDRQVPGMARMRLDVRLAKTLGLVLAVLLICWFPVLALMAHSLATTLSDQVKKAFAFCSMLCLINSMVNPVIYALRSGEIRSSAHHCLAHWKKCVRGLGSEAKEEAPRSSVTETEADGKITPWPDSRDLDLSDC

| SMILES | EC50 [nM] |
| --- | --- |
| CC(C)(C)c1cc(NC(=O)N2CCCN(C(=O)C3CCC(=O)CC3)CC2)no1 [Compound 234, 4-(4-Oxo-cyclohexanecarbonyl)-[1,4]diazepane-1-carboxylic acid (5-tert-butyl-isoxazol-3-yl)-amide] | 33 |
| CC(C)(C)c1cc(NC(=O)N2CCCN(C(=O)C3CCC(F)(F)CC3)CC2)no1 [Compound 144, 4-(4,4-Difluoro-cyclohexanecarbonyl)-[1,4]diazepane-1-carboxylic acid (5-tert-butyl-isoxazol-3-yl)-amide] | 1.3 |

same assay, conditions: CHO, 0.5 h, read-out: Agonist Efficacy (%)

| SMILES | Emax [%] |
| --- | --- |
| CC(C)(C)c1cc(NC(=O)N2CCCN(C(=O)C3CCC(=O)CC3)CC2)no1 [Compound 234, 4-(4-Oxo-cyclohexanecarbonyl)-[1,4]diazepane-1-carboxylic acid (5-tert-butyl-isoxazol-3-yl)-amide] | 100 |
| CC(C)(C)c1cc(NC(=O)N2CCCN(C(=O)C3CCC(F)(F)CC3)CC2)no1 [Compound 144, 4-(4,4-Difluoro-cyclohexanecarbonyl)-[1,4]diazepane-1-carboxylic acid (5-tert-butyl-isoxazol-3-yl)-amide] | 98 |

same assay, conditions: found through the use of the described assays (CB2 agonists); qualitative statement

| agonistic activity | SMILES |
| --- | --- |
| agonistic activity | Cc1csc(NC(=O)N2CCCN(C(=O)C3CCOCC3)CC2)n1 [4-(Tetrahydro-pyran-4-carbonyl)-[1,4]diazepane-1-carboxylic acid (4-methyl-thiazol-2-yl)-amide] |
| agonistic activity | Cn1c(NC(=O)N2CCCN(C(=O)C3CCOCC3)CC2)nc2ccccc21 [4-(Tetrahydro-pyran-4-carbonyl)-[1,4]diazepane-1-carboxylic acid (1-methyl-1H-benzoimidazol-2-yl)-amide] |
| agonistic activity | CC(C)(C)c1cc(NC(=O)N2CCCN(C(=O)N3CCSCC3)CC2)no1 [4-(Thiomorpholine-4-carbonyl)-[1,4]diazepane-1-carboxylic acid (5-tert-butyl-isoxazol-3-yl)-amide] |
| agonistic activity | O=C(Nc1cc(C(F)(F)F)ccn1)N1CCCN(C(=O)C2CCOCC2)CC1 [4-(Tetrahydro-pyran-4-carbonyl)-[1,4]diazepane-1-carboxylic acid (4-trifluoromethyl-pyridin-2-yl)-amide] |
| agonistic activity | CC(c1ccc(NC(=O)N2CCCN(C(=O)C3CCOCC3)CC2)cc1)C(F)(F)F (stereo not shown) [4-(Tetrahydro-pyran-4-carbonyl)-[1,4]diazepane-1-carboxylic acid [4-(2,2,2-trifluoro-1-methyl-ethyl)-phenyl]-amide] |

The next lines start with the compound.

| SMILES | agonistic activity |
| --- | --- |
| CC(C)c1ccc(NC(=O)N2CCCN(C(=O)c3ccccn3)CC2)cc1 [4-(Pyridine-2-carbonyl)-[1,4]diazepane-1-carboxylic acid (4-isopropyl-phenyl)-amide] | agonistic activity |
| CC(C)(C)c1cc(NC(=O)N2CCCN(C(=O)C3CCN(S(C)(=O)=O)CC3)CC2)no1 [4-(1-Methanesulfonyl-piperidine-4-carbonyl)-[1,4]diazepane-1-carboxylic acid (5-tert-butyl-isoxazol-3-yl)-amide] | agonistic activity |
| CC(C)CCC(=O)N1CCCN(C(=O)Nc2ccc3ccccc3c2)CC1 [4-(4-Methyl-pentanoyl)-[1,4]diazepane-1-carboxylic acid naphthalen-2-ylamide] | agonistic activity |
| CC(C)(C)c1cc(NC(=O)N2CCCN(C(=O)C3CCCNC3)CC2)no1 (stereo not shown) [4-(Piperidine-3-carbonyl)-[1,4]diazepane-1-carboxylic acid (5-tert-butyl-isoxazol-3-yl)-amide] | agonistic activity |
| CCCCc1ccc(NC(=O)N2CCCN(C(=O)CCC3CC3)CC2)cc1 [4-(3-Cyclopropyl-propionyl)-[1,4]diazepane-1-carboxylic acid (4-butyl-phenyl)-amide] | agonistic activity |
| CS(=O)(=O)c1ccc(NC(=O)N2CCCN(C(=O)CC3CCOCC3)CC2)cc1 [4-(2-Tetrahydro-pyran-4-yl-acetyl)-[1,4]diazepane-1-carboxylic acid (4-methanesulfonyl-phenyl)-amide] | agonistic activity |
| O=C(Nc1ccc(Cl)c(Cl)c1)N1CCCN(C(=O)c2ccc(Cl)cc2)CC1 [4-(4-Chloro-benzoyl)-[1,4]diazepane-1-carboxylic acid (3,4-dichloro-phenyl)-amide] | agonistic activity |
